In patent publication US11059828B2, “Disubstituted octahydropyrrolo[3,4-C]pyrroles as orexin receptor modulators” (Janssen Pharmaceutica NV, priority 2009, dated 2021):

Molecular target: human orexin-2 receptor (Homo sapiens (Human), UniProt O43614)
Experiment: Human Orexin 2 Receptor Radioligand Binding Studies ([3H]-EMPA competition)
Settings: HEK293 cells stably expressing human orexin-2 receptor; [3H]-EMPA 5 nM; apparent Ki; read-out: OR 2 Ki

Chain of human orexin-2 receptor (O43614 whole entry): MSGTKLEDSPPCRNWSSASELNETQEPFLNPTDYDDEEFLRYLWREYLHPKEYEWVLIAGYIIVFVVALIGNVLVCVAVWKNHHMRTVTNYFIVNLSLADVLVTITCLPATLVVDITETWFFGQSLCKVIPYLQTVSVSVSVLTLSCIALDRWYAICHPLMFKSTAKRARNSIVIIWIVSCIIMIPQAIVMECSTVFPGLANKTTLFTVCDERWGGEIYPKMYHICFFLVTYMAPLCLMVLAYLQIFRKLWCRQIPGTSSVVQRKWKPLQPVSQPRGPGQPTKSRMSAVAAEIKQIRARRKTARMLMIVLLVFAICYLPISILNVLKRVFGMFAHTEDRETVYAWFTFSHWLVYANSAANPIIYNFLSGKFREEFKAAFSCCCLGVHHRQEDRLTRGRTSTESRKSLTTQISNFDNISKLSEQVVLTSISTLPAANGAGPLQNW

## O=C(c1cccc(F)c1-n1nccn1)N1CC2CN(c3cnc4cc(F)c(F)cc4n3)CC2C1 (stereo not shown) [Example 244, (5-(6,7-Difluoroquinoxalin-2-yl)hexahydropyrrolo[3,4-c]pyrrol-2(1H)-yl)(3-fluoro-2-(2H-1,2,3-triazol-2-yl)phenyl)methanone]
  Ki: 18 nM
